Each block holds one compound with its values, some of them ahead of it.
Key:
[1] = tested on: cancer cell line Capan-2 (pancreas adenocarcinoma, DSMZ, ACC-245); assay: XTT test of antitumor efficacy in vitro, Capan-2; assay type: cell-based; conditions: 72 hours exposure
Source text: (§1) XTT method was used in the in vitro experiments. We tested mother platinum (IV) complex TU31 (where X=Cl^−), three new platinum (IV) complexes according to the invention, where X=ClCH2COO^− (complex TU105), F3CCOO^− (complex TU106) and NO3^− (complex TU113), reference platinum (II) complex Oxaliplatin and reference platinum (IV) complex Satraplatin. Two cancer cell lines of heavy-to-treat tumors Capan-2 (pancreas adenocarcinoma) and PC-3 (prostate carcinoma) were used in XTT tests. The obtained results are summarized in the form of IC50 values in the following Table 1:
(§2) Antitumor efficacy of the new Pt(IV) complexes according to the invention was studied on heavy to treat cancer lines of pancreas and prostate. XTT method was used. Results were evaluated in IC50 values and compared with reference Pt(II) complex Oxaliplatin and reference Pt (IV) complex Satraplatin.
(§3) Fresh tumor cell lines were purchased from the Cell Bank to ensure their quality and activities. • a) Capan-2, pancreatic ductal adenocarcinoma, DSMZ, ACC-245 • b) PC-3, prostate carcinoma, ATCC® CRL1435™ Cultivation's Conditions of Tumor Cell Lines: Abbreviation of Used Compounds: • DMSO: dimethyl sulfoxide • PBS: phosphate buffered saline • XTT: 2,3-bis-(2-methoxy-4-nitro-5-sulphophenyl)-2H-tetrazolium-5-carboxanilide salt • PMS: N-methyl-dibenzopyrazinmethylsulfate • FBS: fetal bovine serum • NEAA: non-essential amino acids • L-glu: L-glutamine • DMEM: Dulbecco's Modified Eagle's Medium (SigmaAldrich) • PMS: phenazine methosulfate • Cultivation's conditions: 37° C., 5% CO2 • Growth medium: DMEM, 10% FBS, 2 mM L-glut., NEAA 100× XTT Working Procedure:
(§4) Tested compounds were dissolved in DMSO and diluted by PBS to tested concentration range just before addition to cell lines in wells. PBS was used as a positive control, DMSO in final concentration 20% was used as a negative control. All concentrations of compounds were assayed in triplicates. Each determination was carried out twice and was blinded for experimenter.
(§5) Testing was conducted on a 96-well plate. Dosage of tumor cells was about 2.5. 10^4 cells per well, dosage of growth medium was 100 μl per well. After 24 hours, the growth medium was suck off and 80 μl of fresh growth medium and 20 μl of solution with different concentration of the tested substance were added to wells. After 72 hours, the medium was suck off and 100 μl of a solution of Optimem reagent containing XTT and PMS were added to wells. After another 4 hours, the absorbance was measured at 450 nm (reference was at 630 nm). Results as IC50 were evaluated from the graph of normalized viability of cells plotted against the logarithm of the concentration of the substance.

[2] = tested on: cancer cell line PC-3 (prostate carcinoma, ATCC CRL-1435); assay: XTT test of antitumor efficacy in vitro, PC-3; assay type: cell-based; conditions: 72 hours exposure
Source text: as §1, §2, §3, §4, §5

[3] = tested on: Capan-2, pancreas adenocarcinoma (DSMZ, ACC-245); assay: Antitumor efficacy in vivo, athymic mice model, subcutaneous Capan-2 tumor; design: species or system mice (Athymic Nude-FOXN-1^nu); conditions: for Average tumor weight 28 d / TWI % (tumor weight inhibition) / Average tumor volume 1 d / Average tumor volume 4 d / Average tumor volume 8 d / Average tumor volume 11 d / Average tumor volume 15 d / Average tumor volume 18 d / Average tumor volume 22 d / Average tumor volume 25 d / Average tumor volume 29 d / TVI % (tumor volume inhibition): Capan-2, oral dose 20 mg/kg; for Average tumor weight 28 d / TWI % (tumor weight inhibition): 28 d; for Average tumor volume 1 d: day 1; for Average tumor volume 4 d: day 4; for Average tumor volume 8 d: day 8; for Average tumor volume 11 d: day 11; for Average tumor volume 15 d: day 15; for Average tumor volume 18 d: day 18; for Average tumor volume 22 d: day 22; for Average tumor volume 25 d: day 25; for Average tumor volume 29 d: day 29; for TVI % (tumor volume inhibition): end of experiment; for anti-tumor efficacy (TWI %), times greater than for reference Satraplatin: both pancreatic tumors Capan-2 and PaTu8902
Source text: (§6) Two new platinum (IV) complexes TU105 and TU106 from XTT tests were further studied in vivo on athymic mice model with two pancreatic tumors. The platinum (IV) complex Satraplatin and mother complex TU31 were used as reference compounds again. Two heavy-to-treat tumors of pancreas Capan-2 and PaTu8902 were cultivated and then subcutaneously administered to mice at a dose of 1.10^7 cells/mouse. After an increase in the subcutaneous tumors to a volume of about 0.2 cm^3, two doses of respective complexes 2×20 mg/kg were administered orally every 1 week. Control group of mice received no drug. Volume of tumors were continuously measured throughout the experiment. Three weeks after the second dose, mice were sacrificed, tumors removed, weighed and obtained data were evaluated in the form of tumor volume inhibition in % (TVI %) and tumor weight inhibition in % (TWI %), where: TVI %=100−[(TVexp/TVcont)×100] • TVexp=average volume of cured tumors in cm^3 • TVcont=average volume of control tumors in cm^3 TWI %=100−[(TWexp/TWcont)×100] • TWexp=average weight of cured tumors in g • TWcont=average weight of control tumors in g
(§7) In vivo model: Athymic Nude-FOXN-1^nu, 6 mice per group (3 male+3 female)
(§8) • a) Capan-2, pancreatic adenocarcinoma, ductal (DSMZ, ACC-245) • b) […], pancreatic adenocarcinoma, ductal, high metastatic, grade II (DSMZ, ACC-179) Used Pt (IV) Complexes: • a) the reference Pt (IV) complex Satraplatin, detailed specification, see example 4. • b) the mother Pt (IV) complex TU31, detailed specification, see example 4. • c) the new Pt (IV) complex TU105, detailed specification, see example 4. • d) the new Pt (IV) complex TU106, detailed specification, see example 4. Used Doses for Oral Administration:
(§9) The homogenous bulk composition of the each tested Pt (IV) complex (20 mass. %) with Gelucire 50/13 (80 mass. %) was converted to water emulsion before oral administration to mice.
(§10) Cultivation conditions of cancer cell lines: 37° C., 5% CO2, DMEM (Dulbecco's Modified Eagle's Medium, Sigma Aldrich), 10% FBS, (fetal bovine serum), 2 mM L-glutamin, non-essential aminoacids
(§11) Transplantation of cancer cells: A dose 1×10^7 of cells was subcutaneously transplanted to each experimental mouse, then mice were subdivided into individual experimental groups.
(§12) After an increase in the subcutaneous tumors to a volume of about 0.2 cm^3, two doses of respective complexes 2×20 mg/kg were administered orally every 1 week. The control group of mice received no drug. Volume of tumors were continuously measured throughout the experiment. Three weeks after the second dose, mice were sacrificed, tumors removed, weighed and obtained data were evaluated in the form of tumor volume inhibition in % (TVI %) and tumor weight inhibition in % (TWI %), where: TVI %=100−[(TVexp/TVcont)×100] • TVexp=average volume of cured tumors in cm^3 • TVcont=average volume of control tumors in cm^3 TWI %=100−[(TWexp/TWcont)×100] • TWexp=average weight of cured tumors in g • TWcont=average weight of control tumors in g Obtained Results: […]

[4] = tested on: PaTu8902, pancreas adenocarcinoma, metastatic, grade II (DSMZ, ACC-179); assay: Antitumor efficacy in vivo, athymic mice model, subcutaneous PaTu8902 tumor; design: species or system mice (Athymic Nude-FOXN-1^nu); conditions: PaTu8902, oral dose 20 mg/kg; for Average tumor weight 28 d / TWI % (tumor weight inhibition): 28 d; for Average volume of tumor 1 d: day 1; for Average volume of tumor 4 d: day 4; for Average volume of tumor 8 d: day 8; for Average volume of tumor 11 d: day 11; for Average volume of tumor 15 d: day 15; for Average volume of tumor 18 d: day 18; for Average volume of tumor 22 d: day 22; for Average volume of tumor 25 d: day 25; for Average volume of tumor 29 d: day 29; for TVI % (tumor volume inhibition): end of experiment
Source text: as §6, §7, §8, §9, §10, §11, §12

Compound: N[C@@H]1CCCC[C@H]1N.O=C([O-])C(=O)[O-].[Pt+2] [Oxaliplatin, (1R,2R-1,2-cyclohexanediamine-N,N′) (ethanedioato-O,O′) platinum (II), reference compound]
- IC50 [1]: > 100 µM
- IC50 [2]: 55.7 µM

Compound: CC(=O)[O][Pt]([NH2])([Cl])([Cl])([NH]C1CCCCC1)[O]C(C)=O [Satraplatin, cis-(ammine, cyclohexylamine)-trans-bis-acetate-cis-dichloride Pt(IV), reference compound]
- IC50 [1]: > 30 µM
- IC50 [2]: 10.2 µM
- Average tumor weight 28 d [3]: 0.711 g
- TWI % (tumor weight inhibition) [3]: 10.3%
- Average tumor volume 1 d [3]: 0.21 cm^3
- Average tumor volume 4 d [3]: 0.23 cm^3
- Average tumor volume 8 d [3]: 0.30 cm^3
- Average tumor volume 11 d [3]: 0.39 cm^3
- Average tumor volume 15 d [3]: 0.47 cm^3
- Average tumor volume 18 d [3]: 0.56 cm^3
- Average tumor volume 22 d [3]: 0.66 cm^3
- Average tumor volume 25 d [3]: 0.77 cm^3
- Average tumor volume 29 d [3]: 0.90 cm^3
- TVI % (tumor volume inhibition) [3]: 10.0%
- Average tumor weight 28 d [4]: 7.245 g
- TWI % (tumor weight inhibition) [4]: 11.5%
- Average volume of tumor 1 d [4]: 0.21 cm^3
- Average volume of tumor 4 d [4]: 0.50 cm^3
- Average volume of tumor 8 d [4]: 0.99 cm^3
- Average volume of tumor 11 d [4]: 1.94 cm^3
- Average volume of tumor 15 d [4]: 3.10 cm^3
- Average volume of tumor 18 d [4]: 4.80 cm^3
- Average volume of tumor 22 d [4]: 6.80 cm^3
- Average volume of tumor 25 d [4]: 9.35 cm^3
- Average volume of tumor 29 d [4]: 11.90 cm^3
- TVI % (tumor volume inhibition) [4]: 12.8%

- IC50 [1]: 0.04 µM
- IC50 [2]: 0.06 µM
Compound: [NH3+][Pt-2]([Cl])([NH2+]C12CC3CC(CC(C3)C1)C2)([O]C(=O)CCl)([O]C(=O)C12CC3CC(CC(C3)C1)C2)[O]C(=O)C12CC3CC(CC(C3)C1)C2 [TU105, cis-(ammine,1-adamantylamine)-trans-bis(1-adamantylcarboxylate)-cis-(chloride, monochloroacetate) Pt (IV)]
- Average tumor weight 28 d [3]: 0.213 g
- TWI % (tumor weight inhibition) [3]: 73.1%
- Average tumor volume 1 d [3]: 0.20 cm^3
- Average tumor volume 4 d [3]: 0.21 cm^3
- Average tumor volume 8 d [3]: 0.22 cm^3
- Average tumor volume 11 d [3]: 0.23 cm^3
- Average tumor volume 15 d [3]: 0.27 cm^3
- Average tumor volume 18 d [3]: 0.30 cm^3
- Average tumor volume 22 d [3]: 0.34 cm^3
- Average tumor volume 25 d [3]: 0.37 cm^3
- Average tumor volume 29 d [3]: 0.40 cm^3
- TVI % (tumor volume inhibition) [3]: 60.0%
- anti-tumor efficacy (TWI %), times greater than for reference Satraplatin [3]: about 7 times
- Average tumor weight 28 d [4]: 2.522 g
- TWI % (tumor weight inhibition) [4]: 69.2%
- Average volume of tumor 1 d [4]: 0.21 cm^3
- Average volume of tumor 4 d [4]: 0.21 cm^3
- Average volume of tumor 8 d [4]: 0.40 cm^3
- Average volume of tumor 11 d [4]: 0.62 cm^3
- Average volume of tumor 15 d [4]: 1.06 cm^3
- Average volume of tumor 18 d [4]: 1.65 cm^3
- Average volume of tumor 22 d [4]: 2.46 cm^3
- Average volume of tumor 25 d [4]: 3.40 cm^3
- Average volume of tumor 29 d [4]: 4.35 cm^3
- TVI % (tumor volume inhibition) [4]: 68.1%

Compound: N.NC12CC3CC(CC(C3)C1)C2.O=C([O-])C(F)(F)F.O=C([O-])C12CC3CC(CC(C3)C1)C2.O=C([O-])C12CC3CC(CC(C3)C1)C2.[Cl-].[Pt+4] [TU106, cis-(ammine,1-adamantylamine)-trans-bis(1-adamantylcarboxylate)-cis-(chloride, trifluoroacetate) Pt (IV)]
- IC50 [1]: 0.02 µM
- IC50 [2]: 0.07 µM
- Average tumor weight 28 d [3]: 0.166 g
- TWI % (tumor weight inhibition) [3]: 79.1%
- Average tumor volume 1 d [3]: 0.21 cm^3
- Average tumor volume 4 d [3]: 0.21 cm^3
- Average tumor volume 8 d [3]: 0.23 cm^3
- Average tumor volume 11 d [3]: 0.24 cm^3
- Average tumor volume 15 d [3]: 0.25 cm^3
- Average tumor volume 18 d [3]: 0.26 cm^3
- Average tumor volume 22 d [3]: 0.28 cm^3
- Average tumor volume 25 d [3]: 0.29 cm^3
- Average tumor volume 29 d [3]: 0.31 cm^3
- TVI % (tumor volume inhibition) [3]: 69.0%
- anti-tumor efficacy (TWI %), times greater than for reference Satraplatin [3]: about 7 times
- Average tumor weight 28 d [4]: 2.317 g
- TWI % (tumor weight inhibition) [4]: 71.7%
- Average volume of tumor 1 d [4]: 0.21 cm^3
- Average volume of tumor 4 d [4]: 0.21 cm^3
- Average volume of tumor 8 d [4]: 0.37 cm^3
- Average volume of tumor 11 d [4]: 0.60 cm^3
- Average volume of tumor 15 d [4]: 1.01 cm^3
- Average volume of tumor 18 d [4]: 1.60 cm^3
- Average volume of tumor 22 d [4]: 2.35 cm^3
- Average volume of tumor 25 d [4]: 3.27 cm^3
- Average volume of tumor 29 d [4]: 4.20 cm^3
- TVI % (tumor volume inhibition) [4]: 69.2%

Compound: [NH3+][Pt-2]([Cl])([NH2+]C12CC3CC(CC(C3)C1)C2)([O]C(=O)C12CC3CC(CC(C3)C1)C2)([O]C(=O)C12CC3CC(CC(C3)C1)C2)[O][N+](=O)[O-] [TU113, cis-(ammine,1-adamantylamine)-trans-bis(1-adamantylcarboxylate)-cis-(chloride, nitrate) Pt (IV)]
- IC50 [1]: 0.11 µM
- IC50 [2]: 0.23 µM

— patent US12351593B2, “Platinum IV complexes with substantially increased antitumor efficacy” (priority 2019, dated 2025)
